Data published in US7592345B2, “Piperazine and [1,4]diazepan derivatives as NK antagonists” (Hoffmann-La Roche Inc., priority 2007, dated 2009).

Biological target: T1, recombinant human NK3 receptor (Homo sapiens, UniProt P29371)
T1 construct: expressed in transfected cells; host or cells: HEK293 cells (transient expression), membranes
T1 sequence (P29371 1-465): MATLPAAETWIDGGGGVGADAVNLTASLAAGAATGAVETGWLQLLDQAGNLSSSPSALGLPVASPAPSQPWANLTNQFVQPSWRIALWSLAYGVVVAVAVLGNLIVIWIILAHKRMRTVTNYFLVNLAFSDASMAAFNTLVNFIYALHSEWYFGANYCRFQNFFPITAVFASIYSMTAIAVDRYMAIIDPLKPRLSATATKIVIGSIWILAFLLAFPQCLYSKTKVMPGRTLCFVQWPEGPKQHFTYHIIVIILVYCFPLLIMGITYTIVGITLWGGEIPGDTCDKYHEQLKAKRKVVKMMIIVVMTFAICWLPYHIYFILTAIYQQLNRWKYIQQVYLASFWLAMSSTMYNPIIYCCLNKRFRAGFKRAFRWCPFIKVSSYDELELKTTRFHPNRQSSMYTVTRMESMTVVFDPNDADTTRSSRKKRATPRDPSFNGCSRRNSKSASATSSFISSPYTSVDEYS
Experiment: [3H]SR142801 competition binding assay
Conditions: [3H]SR142801, membranes from HEK293 cells transiently expressing recombinant human NK3 receptor; read-out: hNK3 Ki
Summary of the method: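 Membranes from HEK293 cells transiently expressing human NK3 were incubated 75 min at RT with [3H]SR142801 at its KD and inhibitor (0.0003-10 μM) in Tris-HCl pH 7.4/MnCl2/phosphoramidon/BSA. Nonspecific binding used 10 μM SB222200. Ki from Hill-fitted IC50 via Cheng-Prusoff, duplicate determinations.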

Ki | Compound
0.582 µM | C[C@@H]1CN(CCC(C)(C(=O)NCc2ccc(C(F)(F)F)nc2)c2ccc(Cl)c(Cl)c2)CCN1S(C)(=O)=O (stereo partly drawn) [Example 92, 2-(3,4-Dichloro-phenyl)-4-((R)-4-methanesulfonyl-3-methyl-piperazin-1-yl)-2-methyl-N-(6-trifluoromethyl-pyridin-3-ylmethyl)-butyramide]
0.0643 µM | CC(CCN1CCCN(S(C)(=O)=O)CC1)(C(=O)NCc1ccc(C(F)(F)F)c(F)c1)c1ccc(Cl)c(Cl)c1 (stereo not shown) [Example 95, 2-(3,4-Dichloro-phenyl)-N-(3-fluoro-4-trifluoromethyl-benzyl)-4-(4-methanesulfonyl-[1,4]diazepan-1-yl)-2-methyl-butyramide]
0.0245 µM | CN(Cc1ccc(C(F)(F)F)cc1)C(=O)C(C)(CCN1CCCN(S(C)(=O)=O)CC1)c1ccc(Cl)c(Cl)c1 (stereo not shown) [Example 96, 2-(3,4-Dichloro-phenyl)-4-(4-methanesulfonyl-[1,4]diazepan-1-yl)-2,N-dimethyl-N-(4-trifluoromethyl-benzyl)-butyramide]
0.0299 µM | CN(Cc1ccc(Cl)cc1)C(=O)C(C)(CCN1CCCN(S(C)(=O)=O)CC1)c1ccc(Cl)c(Cl)c1 (stereo not shown) [Example 97, N-(4-Chloro-benzyl)-2-(3,4-dichloro-phenyl)-4-(4-methanesulfonyl-[1,4]diazepan-1-yl)-2,N-dimethyl-butyramide]
0.066 µM | CC(CCN1CCCN(S(C)(=O)=O)CC1)(C(=O)NCc1ccc(Cl)c(F)c1)c1ccc(Cl)c(Cl)c1 (stereo not shown) [Example 98, N-(4-Chloro-3-fluoro-benzyl)-2-(3,4-dichloro-phenyl)-4-(4-methanesulfonyl-[1,4]diazepan-1-yl)-2-methyl-butyramide]
0.128 µM | CC(CCN1CCCN(S(C)(=O)=O)CC1)(C(=O)NCc1ccc(OC(F)(F)F)cc1)c1ccc(Cl)c(Cl)c1 (stereo not shown) [Example 99, 2-(3,4-Dichloro-phenyl)-4-(4-methanesulfonyl-[1,4]diazepan-1-yl)-2-methyl-N-(4-trifluoromethoxy-benzyl)-butyramide]
0.0965 µM | CN(Cc1cccc(F)c1)C(=O)C(C)(CCN1CCCN(S(C)(=O)=O)CC1)c1ccc(Cl)c(Cl)c1 (stereo not shown) [Example 100, 2-(3,4-Dichloro-phenyl)-N-(3-fluoro-benzyl)-4-(4-methanesulfonyl-[1,4]diazepan-1-yl)-2,N-dimethyl-butyramide]
0.0184 µM | CN(Cc1cccc(C(F)(F)F)c1)C(=O)C(C)(CCN1CCCN(S(C)(=O)=O)CC1)c1ccc(Cl)c(Cl)c1 (stereo not shown) [Example 101, 2-(3,4-Dichloro-phenyl)-4-(4-methanesulfonyl-[1,4]diazepan-1-yl)-2,N-dimethyl-N-(3-trifluoromethyl-benzyl)-butyramide]
0.123 µM | CC(CCN1CCCN(S(C)(=O)=O)CC1)(C(=O)NCc1cccc(OC(F)(F)F)c1)c1ccc(Cl)c(Cl)c1 (stereo not shown) [Example 102, 2-(3,4-Dichloro-phenyl)-4-(4-methanesulfonyl-[1,4]diazepan-1-yl)-2-methyl-N-(3-trifluoromethoxy-benzyl)-butyramide]
0.0418 µM | CN(Cc1cccc(Cl)c1)C(=O)C(C)(CCN1CCCN(S(C)(=O)=O)CC1)c1ccc(Cl)c(Cl)c1 (stereo not shown) [Example 103, N-(3-Chloro-benzyl)-2-(3,4-dichloro-phenyl)-4-(4-methanesulfonyl-[1,4]diazepan-1-yl)-2,N-dimethyl-butyramide]
0.0602 µM | COc1ccc(CN(C)C(=O)C(C)(CCN2CCCN(S(C)(=O)=O)CC2)c2ccc(Cl)c(Cl)c2)cc1F (stereo not shown) [Example 104, 2-(3,4-Dichloro-phenyl)-N-(3-fluoro-4-methoxy-benzyl)-4-(4-methanesulfonyl-[1,4]diazepan-1-yl)-2,N-dimethyl-butyramide]
0.135 µM | COc1ccc(C(NC(=O)C(C)(CCN2CCCN(S(C)(=O)=O)CC2)c2ccc(Cl)c(Cl)c2)C2CC2)cc1 (stereo not shown) [Example 105, N-[Cyclopropyl-(4-methoxy-phenyl)-methyl]-2-(3,4-dichloro-phenyl)-4-(4-methanesulfonyl-[1,4]diazepan-1-yl)-2-methyl-butyramide]
0.0092 µM | CN(Cc1ccc(F)c(C(F)(F)F)c1)C(=O)C(C)(CCN1CCCN(S(C)(=O)=O)CC1)c1ccc(Cl)c(Cl)c1 (stereo not shown) [Example 106, 2-(3,4-Dichloro-phenyl)-N-(4-fluoro-3-trifluoromethyl-benzyl)-4-(4-methanesulfonyl-[1,4]diazepan-1-yl)-2,N-dimethyl-butyramide]
0.209 µM | CC(CCN1CCCN(S(C)(=O)=O)CC1)(C(=O)NCc1cc(C(F)(F)F)cc(C(F)(F)F)c1)c1ccc(Cl)c(Cl)c1 (stereo not shown) [Example 107, N-(3,5-Bis-trifluoromethyl-benzyl)-2-(3,4-dichloro-phenyl)-4-(4-methanesulfonyl-[1,4]diazepan-1-yl)-2-methyl-butyramide]
0.0895 µM | COc1cc(CN(C)C(=O)C(C)(CCN2CCCN(S(C)(=O)=O)CC2)c2ccc(Cl)c(Cl)c2)ccc1OC(F)F (stereo not shown) [Example 108, 2-(3,4-Dichloro-phenyl)-N-(4-difluoromethoxy-3-methoxy-benzyl)-4-(4-methanesulfonyl-[1,4]diazepan-1-yl)-2,N-dimethyl-butyramide]
0.0335 µM | Cc1ccc(CN(C)C(=O)C(C)(CCN2CCCN(S(C)(=O)=O)CC2)c2ccc(Cl)c(Cl)c2)cc1 (stereo not shown) [Example 109, 2-(3,4-Dichloro-phenyl)-4-(4-methanesulfonyl-[1,4]diazepan-1-yl)-2,N-dimethyl-N-(4-methyl-benzyl)-butyramide]
0.291 µM | CN(C)c1ccc(CNC(=O)C(C)(CCN2CCCN(S(C)(=O)=O)CC2)c2ccc(Cl)c(Cl)c2)cc1 (stereo not shown) [Example 110, 2-(3,4-Dichloro-phenyl)-N-(4-dimethylamino-benzyl)-4-(4-methanesulfonyl-[1,4]diazepan-1-yl)-2-methyl-butyramide]
0.0067 µM | CN(Cc1ccc(Cl)c(C(F)(F)F)c1)C(=O)C(C)(CCN1CCCN(S(C)(=O)=O)CC1)c1ccc(Cl)c(Cl)c1 (stereo not shown) [Example 111, N-(4-Chloro-3-trifluoromethyl-benzyl)-2-(3,4-dichloro-phenyl)-4-(4-methanesulfonyl-[1,4]diazepan-1-yl)-2,N-dimethyl-butyramide]
0.0162 µM | CN(Cc1ccc(C(F)(F)F)c(F)c1)C(=O)C(C)(CCN1CCCN(S(C)(=O)=O)CC1)c1ccc(Cl)c(Cl)c1 (stereo not shown) [Example 112, 2-(3,4-Dichloro-phenyl)-N-(3-fluoro-4-trifluoromethyl-benzyl)-4-(4-methanesulfonyl-[1,4]diazepan-1-yl)-2,N-dimethyl-butyramide]
0.0101 µM | CN(Cc1ccc(Cl)c(Cl)c1)C(=O)C(C)(CCN1CCCN(S(C)(=O)=O)CC1)c1ccc(Cl)c(Cl)c1 (stereo not shown) [Example 113, N-(3,4-Dichloro-benzyl)-2-(3,4-dichloro-phenyl)-4-(4-methanesulfonyl-[1,4]diazepan-1-yl)-2,N-dimethyl-butyramide]
0.0399 µM | CC(CCN1CCCN(S(C)(=O)=O)CC1)(C(=O)NCc1ccc(Cl)c(Cl)c1)c1ccc(Cl)c(Cl)c1 (stereo not shown) [Example 114, N-(3,4-Dichloro-benzyl)-2-(3,4-dichloro-phenyl)-4-(4-methanesulfonyl-[1,4]diazepan-1-yl)-2-methyl-butyramide]
0.183 µM | CC(CCN1CCCN(S(C)(=O)=O)CC1)(C(=O)NCc1cccc(OC(F)F)c1)c1ccc(Cl)c(Cl)c1 (stereo not shown) [Example 115, 2-(3,4-Dichloro-phenyl)-N-(3-difluoromethoxy-benzyl)-4-(4-methanesulfonyl-[1,4]diazepan-1-yl)-2-methyl-butyramide]
0.575 µM | CC(CCN1CCCN(S(C)(=O)=O)CC1)(C(=O)NCc1cc(F)ccc1C(F)(F)F)c1ccc(Cl)c(Cl)c1 (stereo not shown) [Example 116, 2-(3,4-Dichloro-phenyl)-N-(5-fluoro-2-trifluoromethyl-benzyl)-4-(4-methanesulfonyl-[1,4]diazepan-1-yl)-2-methyl-butyramide]
0.0496 µM | CC(CCN1CCCN(S(C)(=O)=O)CC1)(C(=O)NCc1ccc(C(F)(F)F)cc1)c1ccc(Cl)c(Cl)c1 (stereo not shown) [Example 117, 2-(3,4-Dichloro-phenyl)-4-(4-methanesulfonyl-[1,4]diazepan-1-yl)-2-methyl-N-(4-trifluoromethyl-benzyl)-butyramide]
0.136 µM | CC(CCN1CCCN(S(C)(=O)=O)CC1)(C(=O)NCc1cc(C(F)(F)F)ccc1F)c1ccc(Cl)c(Cl)c1 (stereo not shown) [Example 118, 2-(3,4-Dichloro-phenyl)-N-(2-fluoro-5-trifluoromethyl-benzyl)-4-(4-methanesulfonyl-[1,4]diazepan-1-yl)-2-methyl-butyramide]
0.121 µM | CC(NC(=O)C(C)(CCN1CCCN(S(C)(=O)=O)CC1)c1ccc(Cl)c(Cl)c1)c1ccc(Cl)cc1 (stereo not shown) [Example 119, N-[1-(4-Chloro-phenyl)-ethyl]-2-(3,4-dichloro-phenyl)-4-(4-methanesulfonyl-[1,4]diazepan-1-yl)-2-methyl-butyramide]
0.108 µM | COc1cccc(CN(C)C(=O)C(C)(CCN2CCCN(S(C)(=O)=O)CC2)c2ccc(Cl)c(Cl)c2)c1 (stereo not shown) [Example 120, 2-(3,4-Dichloro-phenyl)-4-(4-methanesulfonyl-[1,4]diazepan-1-yl)-N-(3-methoxy-benzyl)-2,N-dimethyl-butyramide]
0.0312 µM | CN(Cc1ccccc1Cl)C(=O)C(C)(CCN1CCCN(S(C)(=O)=O)CC1)c1ccc(Cl)c(Cl)c1 (stereo not shown) [Example 121, N-(2-Chloro-benzyl)-2-(3,4-dichloro-phenyl)-4-(4-methanesulfonyl-[1,4]diazepan-1-yl)-2,N-dimethyl-butyramide]
